In experiment [1] the target is T1, TchiGR43a (Trichogramma chilonis, UniProt A0A481RL18).
T1 construct: full-length open reading frame (549 amino acid residues), expressed in Xenopus laevis oocytes
T1 sequence (A0A481RL18 1-549): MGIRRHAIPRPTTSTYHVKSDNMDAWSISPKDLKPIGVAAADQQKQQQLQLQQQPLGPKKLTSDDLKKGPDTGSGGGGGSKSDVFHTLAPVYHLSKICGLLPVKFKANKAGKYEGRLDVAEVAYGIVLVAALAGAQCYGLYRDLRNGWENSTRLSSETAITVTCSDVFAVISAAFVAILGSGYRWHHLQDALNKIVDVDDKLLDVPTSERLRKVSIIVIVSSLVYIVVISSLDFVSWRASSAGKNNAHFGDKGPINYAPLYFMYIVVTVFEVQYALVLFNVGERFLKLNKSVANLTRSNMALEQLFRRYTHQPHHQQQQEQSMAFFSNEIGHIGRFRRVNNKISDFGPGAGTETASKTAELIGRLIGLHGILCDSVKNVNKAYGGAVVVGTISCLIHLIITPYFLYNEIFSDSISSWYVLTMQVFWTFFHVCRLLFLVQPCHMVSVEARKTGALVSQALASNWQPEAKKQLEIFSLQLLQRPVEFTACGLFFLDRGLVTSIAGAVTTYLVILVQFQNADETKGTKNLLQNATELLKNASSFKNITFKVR
The experiment can be described thus: two-electrode voltage-clamp of Xenopus oocytes expressing TchiGR43a, dose-response. Format: cell-based. For orientation: Two-electrode voltage clamp is typically applied to oocytes expressing channels or transporters.

The target in experiment [2] is T1, TchiGR43a. The experiment in a line: two-electrode voltage-clamp of Xenopus oocytes expressing TchiGR43a, single concentration […] (weaker response than D-fructose). The experiment is classed as cell-based.

The values below come from publication PMC6583964, “Identification and functional characterization of D-fructose receptor in an egg parasitoid, Trichogramma chilonis” (PLoS ONE, 2019).

Usually EC50 stands for the midpoint of the concentration-response curve. Read a low EC50 as a more potent agent. With `O=C(CO)[C@@H](O)[C@H](O)[C@H](O)CO` [D-fructose], it took 23 mM to reach a half-maximal effect on TchiGR43a [1] (EC50).

On to `O[C@H]1[C@H](O)[C@@H](O)[C@H](O)[C@@H](O)[C@H]1O` [myo-inositol], for which the “two-electrode voltage-clamp of Xenopus oocytes expressing TchiGR43a, single conc” value on TchiGR43a [2] is “the oocytes expressing TchiGR43a showed responses to D-fructose and myo-inositol”.
